Source: BindingDB's records for patent US12534451 (St. Jude Children''s Research Hospital, Inc., 2026)

Biological target: Pantothenate kinase 3 (Homo sapiens, UniProt Q9H999)
Experiment: PANK Activity Assay
Description: All the experiments were repeated twice in duplicate and the data were an average ±data range. […] The experiments mimicking the mixture of ligands present in vivo were performed under different conditions.

Sequence of Pantothenate kinase 3 (Q9H999 whole entry): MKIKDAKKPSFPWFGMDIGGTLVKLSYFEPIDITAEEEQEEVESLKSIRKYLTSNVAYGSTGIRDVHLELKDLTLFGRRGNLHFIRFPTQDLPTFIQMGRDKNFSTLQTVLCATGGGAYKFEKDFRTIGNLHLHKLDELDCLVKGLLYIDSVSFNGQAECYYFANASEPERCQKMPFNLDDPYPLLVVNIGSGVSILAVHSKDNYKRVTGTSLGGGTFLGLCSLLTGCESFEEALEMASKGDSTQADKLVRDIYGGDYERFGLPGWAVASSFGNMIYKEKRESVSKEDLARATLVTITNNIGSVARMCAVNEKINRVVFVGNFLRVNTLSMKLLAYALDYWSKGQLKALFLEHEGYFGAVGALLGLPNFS

O=C(Cc1ccc(C2CC2)c(F)c1)N1CCN(c2nc3ncc(F)cc3o2)CC1 [US12534451, Compound PZ-4351]
IC50: 1.23 nM
